Results on seven molecules are retold here after US10787490B2, “Peptide inhibitors of interleukin-23 receptor and their use to treat inflammatory diseases” (Protagonist Therapeutics, Inc., priority 2015, dated 2020).

Where two headings read alike, the source gives them in different places. Where a SMILES comes first, the peptide text is derived from it. Bridges are numbered along the chain shown (N, C = ends). [ ]: non-standard residue; d: D form. 2Nal = N[C@@H](Cc1ccc2ccccc2c1)C(=O)O; AEF = NCCOc1ccc(C[C@H](N)C(=O)O)cc1; Pen = CC(C)(S)[C@H](N)C(=O)O; Thp = NC1(C(=O)O)CCOCC1

For one data set, the system named is rat splenocytes. The data set is described as follows: Rat Splenocyte Assay (IL-17A). The format is cell-based. The following applies: IL-17A produced by activated splenocytes exposed to IL-23; read-out: Cell assay (nM) Rat (Spleen), IC50. As to the method: A new assay developed was the rat splenocyte assay.
Briefly, splenocytes freshly isolated from rat were seeded in 96-well tissue culture plates in complete medium containing IL-10. […] Changes in IL-17A levels in the supernatants were detected using an ELISA.

For data set [1], the system named is TNBS-induced acute colitis, Sprague-Dawley rats. The data set is described as follows: TNBS induced colitis in rat. The format is in vivo.
Data set [2] deals with distal colon tissue of TNBS-exposed rats. In words: Biomarkers in distal colon of TNBS rats (ELISA). The format is in vivo, rat. The following applies: vs vehicle treated controls. On the procedure: Levels of inflammatory markers were examined in the colons. The distal colon tissue samples, designated for protein expression analysis, were flash frozen after collection. For protein extraction, the samples were thawed, weighed and homogenized in the extraction buffer (PBS pH 7.2 supplemented with Protease Inhibitors, 3× volume:weight). The homogenates were centrifuged at 13 krpm at 4° C. for 15 minutes, a total of two times to remove the debris. The supernatants were saved in multiple aliquots in −80° C. and subsequently used for protein expression analysis on ELISA. The total protein in each sample was quantified using BCA assay.

The subject of the next data set is Cyno IL-23R. It counts as binding.
For data set [3], the target named is human IL-23R (IL23R_huFC) (Homo sapiens, UniProt Q5VWK5). As to conditions: read-out: ELISA IL23R/IL23 in nMoles (IC50); non-cyclic peptides.
The nature of data set [4]: DTT stability assay (redox stability). It counts as in vitro ADME. The following applies: half-life, 0.5 mM DTT, room temperature, numeric.
Data set [5] in a line: Stability in simulated intestinal fluid (SIF). The format is in vitro ADME. Details: dose or concentration left out as unconfirmed. The following applies: simulated intestinal fluid (SIF) with pancreatin, pH 6.8; read-out: Stability (t1/2, hr) SIF (converted).
Data set [6] can be described thus: Stability in simulated gastric fluid (SGF). The following applies: pig, simulated gastric fluid (SGF) with porcine pepsin, pH 2. It counts as in vitro ADME.
For the next data set, the system named is IL-23R in human DB cells. In words: Schild analysis, Human DB Cell (pSTAT3). It counts as cell-based. The following applies: 0.3-100 nM peptide.
Data set [7] relates to DSS-induced colitis, Sprague Dawley rats. In words: Rat Colitis Model: 9 Days of 3% DSS-Containing Drinking Water. As to conditions: 100 mg/kg PO, QD. The format is in vivo.
Where [8] appears, read: read-out: Cross Reactivity (nM) ELISA cyno IL23R IL23.

Chain of human IL-23R (IL23R_huFC) (Q5VWK5 24-354 limits assumed, looked up): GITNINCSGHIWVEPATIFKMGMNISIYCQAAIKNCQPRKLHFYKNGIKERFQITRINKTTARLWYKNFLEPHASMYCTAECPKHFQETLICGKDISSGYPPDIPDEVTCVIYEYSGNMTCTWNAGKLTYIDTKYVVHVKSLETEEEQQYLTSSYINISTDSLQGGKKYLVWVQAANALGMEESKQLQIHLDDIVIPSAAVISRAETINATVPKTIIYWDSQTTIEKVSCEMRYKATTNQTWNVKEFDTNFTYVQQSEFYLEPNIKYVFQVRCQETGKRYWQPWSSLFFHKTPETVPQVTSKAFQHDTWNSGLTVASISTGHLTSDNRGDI

“Ac-[Pen]-NTWQ-[Pen]-[Phe[4-(2-aminoethoxy)]-[2-Nal]-[4-amino-4-carboxy-tetrahydropyran]-[Lys(Ac)]—NN—NH2 [SEQ ID NO: 1185]”: the IC50 in the data set on rat splenocytes came to 35 nM. Further, the histopathology scores entry in data set [1] (Example 12) is “did not significantly reduce”. Also, the colon macroscopic score entry in [1] (Example 12, vs vehicle) is “significantly reduced”. The weight loss entry in data set [1] (Example 12, Peptide 1185 37 mg/kg/day PO, anti-IL-23p19 4 mg/kg ip, prednisolone 10 mg/day P.O., vs vehicle) is “did not significantly prevent”. Moreover, in data set [2], the “IL-17A level in colon” value is on record as “did not significantly reduce”, the “IL-22 level in colon” value was “did not significantly reduce” and the “MPO level in colon” value is listed as “did not significantly reduce”. In the data set with Cyno IL-23R (IL-23/IL-23R competitive binding, cyno, read-out: ELISA (nM) Cyno, IC50), the IC50 was 3 nM.

For the molecule `CC(=O)NC1CCSCC(C(=O)NC(Cc2ccc(OCCN)cc2)C(=O)NC(Cc2ccc3ccccc3c2)C(=O)NC2(C(=O)NC(CCC(=O)O)C(=O)NC(CC(N)=O)C(=O)NC(CC(N)=O)C(N)=O)CCOCC2)NC(=O)C(CCC(N)=O)NC(=O)C(Cc2c[nH]c3ccccc23)NC(=O)C(C(C)O)NC(=O)C(CCC(N)=O)NC1=O` (stereo not shown) [SEQ ID NO: 1290, Ac-cyclo[[Abu]-QTWQC]-[Phe[4-(2-aminoethoxy)]-[2-Nal]-[4-amino-4-carboxy-tetrahydropyran]-ENN-NH2], the IC50 in data set [3] was over 100000 nM. The “DTT Stability” value in data set [4] was over 120 min.

For Hy-CADWVCYWHTFG-NH2 [SEQ ID NO: 169], the IC50 with Cyno IL-23R (setting [8]) was 1000 to 10000 nM.

With “H-CSNWVCYWHTYG-NH2 (cysteine pairing not given here) [SEQ ID NO: 198]”, the IC50 with Cyno IL-23R (setting [8]) is under 250 nM.

`CC(=O)N[C@@H]1CCSC[C@@H](C(=O)N[C@@H](Cc2ccc(OCCN)cc2)C(=O)N[C@@H](Cc2ccc3ccccc3c2)C(=O)NC2(C(=O)N[C@@H](CCC(=O)O)C(=O)N[C@@H](CC(N)=O)C(=O)N[C@@H](CC(N)=O)C(N)=O)CCOCC2)NC(=O)[C@H](CCC(N)=O)NC(=O)[C@H](Cc2c[nH]c3ccccc23)NC(=O)[C@H]([C@@H](C)O)NC(=O)[C@@H](CCC(N)=O)NC1=O` [SEQ ID NO: 980]: the half-life in data set [5] is 11 h. This molecule also gave a half-life at 20 μM in data set [6] of 10 h. For the same molecule, in data set [1] (Example 14, vs vehicle), the colon macroscopic score entry is recorded as “significantly reduced” and the “sum of the histopathology score” value was “significantly reduced”. In addition, in data set [1] (Example 14, 37 mg/kg/day oral), the weight loss entry is reported as “prevented”. In data set [2], the “IL-22 level in colon” value is “reduced” and the “MPO level in colon” value was “reduced”.

In the case of `CC(=O)NCCCC[C@H](NC(=O)C1(NC(=O)[C@H](Cc2ccc3ccccc3c2)NC(=O)[C@H](Cc2ccc(OCCN)cc2)NC(=O)[C@H]2NC(=O)[C@H](CCC(N)=O)NC(=O)[C@H](Cc3c[nH]c4ccccc34)NC(=O)[C@H]([C@@H](C)O)NC(=O)[C@H](CC(N)=O)NC(=O)[C@@H](NC(C)=O)C(C)(C)SSC2(C)C)CCOCC1)C(=O)N[C@@H](CC(N)=O)C(=O)N[C@@H](CC(N)=O)C(=O)N[C@@H](CC(N)=O)C(N)=O` [SEQ ID NO: 1211, Ac-[Pen]-NTWQ-[Pen]-[Phe[4-(2-aminoethoxy)]-[2-Nal]-[4-amino-4-carboxy-tetrahydropyran]-[Lys(Ac)]-NNN-NH2] (Ac-[Pen]NTWQ[Pen][AEF][2Nal][Thp]K(Ac)NNN-NH2; disulfide 1-6), the Schild slope in the data set on IL-23R in human DB cells is recorded as 0.76.

Consider `O=C(O)c1cc(/N=N/c2ccc(S(=O)(=O)Nc3ccccn3)cc2)ccc1O` [sulfasalazine], for which the “terminal ratio of colon weight:colon length” value in [7] (difference vs DSS alone) is “significant”. Moreover, the “disease score (DAI)” value in data set [7] (from Day 5, vs DSS alone) is recorded as “attenuated”.
